Laboratory results as given in ChEMBL document CHEMBL1201862, “PubChem BioAssay data set” (2004).
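Briefly, cells in 96-well plates were exposed to five compound concentrations for 48 h, and endpoints were estimated by linear interpolation. Here, GI50 denotes the concentration required for 50% inhibition of growth.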 The source made the active and inactive calls. Rule as the data show it: active = GI50 up to about 1.1 µM and inactive = higher.

How the values were obtained:
Assay in all cases: NCI-60 cell line screen, 48 h
NCI-H226 = tested on: NCI-H226
SN12C = tested on: SN12C
DMS-273 = tested on: DMS-273
SK-MEL-5 = tested on: SK-MEL-5
SF-295 = tested on: SF-295
HOP-18 = tested on: HOP-18
786-0 = tested on: 786-0
KM-20L2 = tested on: KM-20L2
HOP-92 = tested on: HOP-92
K562 = tested on: K562
CAKI-1 = tested on: CAKI-1
SW-620 = tested on: SW-620
SF-268 = tested on: SF-268
A498 = tested on: A498
LXFL 529 = tested on: LXFL 529
SK-MEL-28 = tested on: SK-MEL-28
M19-MEL = tested on: M19-MEL
HL-60 = tested on: HL-60
M14 = tested on: M14
SF-539 = tested on: SF-539
HT-29 = tested on: HT-29
OVCAR-5 = tested on: OVCAR-5
ACHN = tested on: ACHN
SK-OV-3 = tested on: SK-OV-3
HCT-15 = tested on: HCT-15
NCI-H23 = tested on: NCI-H23
KM12 = tested on: KM12
TK-10 = tested on: TK-10
A549 = tested on: A549
LOX IMVI = tested on: LOX IMVI
OVCAR-4 = tested on: OVCAR-4
SNB-75 = tested on: SNB-75
HOP-62 = tested on: HOP-62
HCC 2998 = tested on: HCC 2998
EKVX = tested on: EKVX
RPMI-8226 = tested on: RPMI-8226
OVCAR-3 = tested on: OVCAR-3
DLD-1 = tested on: DLD-1
UACC-257 = tested on: UACC-257
NCI-H460 = tested on: NCI-H460
Malme-3M = tested on: Malme-3M
RXF 393 = tested on: RXF 393
UACC-62 = tested on: UACC-62
SK-MEL-2 = tested on: SK-MEL-2
U-251 = tested on: U-251
MOLT-4 = tested on: MOLT-4
COLO 205 = tested on: COLO 205
IGROV-1 = tested on: IGROV-1
UO-31 = tested on: UO-31
XF498 = tested on: XF498
OVCAR-8 = tested on: OVCAR-8
SNB-78 = tested on: SNB-78
CCRF-CEM = tested on: CCRF-CEM
DMS-114 = tested on: DMS-114
NCI-H522 = tested on: NCI-H522
RXF 631 = tested on: RXF 631
SR = tested on: SR
HCT-116 = tested on: HCT-116

SMILES: O=C1[C@@H]2C(c3c(Cl)cccc3Cl)=NO[C@@H]2C(=O)N1c1ccc(Cc2ccc(N3C(=O)[C@H]4C(c5c(Cl)cccc5Cl)=NO[C@H]4C3=O)cc2)cc1
- GI50 (NCI-H226): > 100 µM (inactive)
- GI50 (SN12C): > 100 µM (inactive)
- GI50 (DMS-273): > 100 µM (inactive)
- GI50 (SK-MEL-5): > 100 µM (inactive)
- GI50 (SF-295): > 100 µM (inactive)
- GI50 (HOP-18): > 100 µM (inactive)
- GI50 (786-0): > 100 µM (inactive)
- GI50 (KM-20L2): > 100 µM (inactive)
- GI50 (HOP-92): > 100 µM (inactive)
- GI50 (K562): > 100 µM (inactive)
- GI50 (CAKI-1): > 100 µM (inactive)
- GI50 (SW-620): > 100 µM (inactive)
- GI50 (SF-268): > 100 µM (inactive)
- GI50 (A498): > 100 µM (inactive)
- GI50 (LXFL 529): > 100 µM (inactive)
- GI50 (SK-MEL-28): > 100 µM (inactive)
- GI50 (M19-MEL): > 100 µM (inactive)
- GI50 (HL-60): > 100 µM (inactive)
- GI50 (M14): > 100 µM (inactive)
- GI50 (SF-539): > 100 µM (inactive)
- GI50 (HT-29): > 100 µM (inactive)
- GI50 (OVCAR-5): > 100 µM (inactive)
- GI50 (ACHN): > 100 µM (inactive)
- GI50 (SK-OV-3): > 100 µM (inactive)
- GI50 (HCT-15): > 100 µM
- GI50 (NCI-H23): > 100 µM (inactive)
- GI50 (KM12): > 100 µM (inactive)
- GI50 (TK-10): > 100 µM (inactive)
- GI50 (A549): > 100 µM (inactive)
- GI50 (LOX IMVI): > 100 µM (inactive)
- GI50 (OVCAR-4): > 100 µM (inactive)
- GI50 (SNB-75): > 100 µM (inactive)
- GI50 (HOP-62): > 100 µM (inactive)
- GI50 (HCC 2998): > 100 µM (inactive)
- GI50 (EKVX): > 100 µM (inactive)
- GI50 (RPMI-8226): > 100 µM (inactive)
- GI50 (OVCAR-3): > 100 µM (inactive)
- GI50 (DLD-1): > 100 µM (inactive)
- GI50 (UACC-257): > 100 µM (inactive)
- GI50 (NCI-H460): > 100 µM (inactive)
- GI50 (Malme-3M): > 100 µM (inactive)
- GI50 (RXF 393): > 100 µM (inactive)
- GI50 (UACC-62): > 100 µM (inactive)
- GI50 (SK-MEL-2): > 100 µM (inactive)
- GI50 (U-251): > 100 µM (inactive)
- GI50 (MOLT-4): > 100 µM (inactive)
- GI50 (COLO 205): > 100 µM (inactive)
- GI50 (IGROV-1): > 100 µM (inactive)
- GI50 (UO-31): 90.6 µM (inactive)
- GI50 (XF498): > 100 µM (inactive)
- GI50 (OVCAR-8): > 100 µM (inactive)
- GI50 (SNB-78): > 100 µM (inactive)
- GI50 (CCRF-CEM): > 100 µM (inactive)
- GI50 (DMS-114): > 100 µM (inactive)

SMILES: COc1cc(C2c3cc4c(cc3[C@@H](N(C)C)[C@H]3COC(=O)C23)OCO4)cc(OC)c1O (some centres not stated)
- GI50 (NCI-H226): > 100 µM (inactive)
- GI50 (SN12C): 51.4 µM (inactive)
- GI50 (DMS-273): 32.5 µM (inactive)
- GI50 (SK-MEL-5): 23.7 µM (inactive)
- GI50 (SF-295): > 10 µM (inactive)
- GI50 (786-0): 33.2 µM (inactive)
- GI50 (KM-20L2): 23.4 µM (inactive)
- GI50 (HOP-92): 11.2 µM (inactive)
- GI50 (K562): 27.3 µM (inactive)
- GI50 (CAKI-1): 23.7 µM (inactive)
- GI50 (SW-620): 38.1 µM (inactive)
- GI50 (NCI-H522): 4.4 µM (inactive)
- GI50 (SF-268): 46.7 µM (inactive)
- GI50 (A498): 23.3 µM (inactive)
- GI50 (LXFL 529): 35.2 µM (inactive)
- GI50 (SK-MEL-28): 14.5 µM (inactive)
- GI50 (HL-60): 33.4 µM (inactive)
- GI50 (M14): 31 µM (inactive)
- GI50 (SF-539): 21 µM (inactive)
- GI50 (HT-29): 34.4 µM (inactive)
- GI50 (OVCAR-5): > 100 µM (inactive)
- GI50 (ACHN): 41.5 µM (inactive)
- GI50 (SK-OV-3): 37 µM (inactive)
- GI50 (HCT-15): 31.1 µM
- GI50 (NCI-H23): 37.7 µM (inactive)
- GI50 (KM12): 38.2 µM (inactive)
- GI50 (RXF 631): 42.2 µM (inactive)
- GI50 (TK-10): > 100 µM (inactive)
- GI50 (A549): 45.9 µM (inactive)
- GI50 (LOX IMVI): 33.3 µM (inactive)
- GI50 (OVCAR-4): 42.9 µM (inactive)
- GI50 (SNB-75): 93.3 µM (inactive)
- GI50 (HOP-62): 50.4 µM (inactive)
- GI50 (HCC 2998): 53.6 µM (inactive)
- GI50 (EKVX): 64.4 µM (inactive)
- GI50 (RPMI-8226): 92.3 µM (inactive)
- GI50 (DLD-1): 41.9 µM (inactive)
- GI50 (UACC-257): 67.9 µM (inactive)
- GI50 (NCI-H460): 31.2 µM (inactive)
- GI50 (Malme-3M): 37.7 µM (inactive)
- GI50 (SR): 54.5 µM (inactive)
- GI50 (RXF 393): 86.7 µM (inactive)
- GI50 (UACC-62): 33.7 µM (inactive)
- GI50 (SK-MEL-2): 33.4 µM (inactive)
- GI50 (U-251): 34 µM (inactive)
- GI50 (MOLT-4): 38.2 µM (inactive)
- GI50 (COLO 205): 39.4 µM (inactive)
- GI50 (IGROV-1): 72.1 µM (inactive)
- GI50 (UO-31): > 100 µM (inactive)
- GI50 (XF498): 45 µM (inactive)
- GI50 (OVCAR-8): 25.5 µM (inactive)
- GI50 (CCRF-CEM): 49.1 µM (inactive)
- GI50 (HCT-116): 38 µM (inactive)
